# From patent US20230302036A1, “COMPOSITIONS FOR TREATMENT OF SPINAL MUSCULAR ATROPHY” (priority 2020, published 2023)
# Test system: SMA mice (Smn-/-; SMN2 2TG/0)
# Assay: Growth curves (body weight gain) of severe SMA mice
# Assay type: in vivo, mouse
# Details: ASO1 at P0 and P1 and/or VPA 10 µg/g s.c.
# Experimental: Kaplan-Meier survival plot (FIG. 4A) and growth curves (FIG. 4B) of SMA mice, following subcutaneous administration at P0 and P1 of 16.8 µg ASO1 (n=18) or saline (n=14), one subcutaneous dose before P3 of 10 µg per g of body weight VPA (n=12), or both treatments together (n=20). ASO1-treated Smn^+/- heterozygote littermates (n=15) served as controls. Scramble (Ctrl) (n=12, 40 trials), VPA (n=13, 50 trials), ASO1 (n=11, 50 trials), ASO1 + VPA (n=17, 68 trials), and untreated heterozygotes (n=12, 36 trials). Statistical significance was analyzed by two-way repeated measures ANOVA. P < 0.05 was considered statistically significant; data are represented as mean + SD. In the righting-reflex test, the time it took a mouse to right itself […] on a flat surface was measured. In the grip-strength test, the angle at which the pups fell from a tablet with a rough to which they held on by their forelimbs was measured.
# FIGS. 7A-H show ASO1 and TSA combined treatment in mice. Kaplan-Meier survival plot (FIG. 7A) and growth curves (FIG. 7B) of SMA mice after subcutaneous administration at P0 and P1 of 16.8 µg ASO1 (n=20) or vehicle (n=12), one subcutaneous dose of 10 µg per g of body weight TSA (n=15) at P2, or both treatments together (n=24), are shown. ASO1-treated heterozygotes (n=18) served as controls. Statistical significance was analyzed by two-way repeated measures ANOVA. […]
compound,measurement,value
"CCCC(CCC)C(=O)O [VPA, valproic acid]",body weight gain in the surviving mice,lack of an effect per se
